Reference: patent publication US20160008431A1, “Tumor Therapy With Antitumor Agents In Combination With Sindbis Virus-Based Vectors” (priority 2008, published 2016)
Entries after “also recorded” stand apart in the source; their conditions may differ.

Assays:
[1] = tested on: luciferase-expressing Mia Paca cells; assay: Mia Paca pancreatic cancer model, Sindbis vectors with and without CPT-11; type: in vivo, Es1/SCID mice; details: treated 4 times a week for 2 weeks; images since day 18
Experimental: FIG. 3 is a graph showing the effect of Sindbis virus vectors with and without CPT-11 treatment on pancreatic cancer in Mia Paca mice, a model for pancreatic cancer.
Female Es1/SCID mice were inoculated intraperitoneally with 5 million luciferase-expressing Mia Paca cells (a model for pancreatic cancer) on day 0. Mice were then divided into 4 groups: Mock (untreated), Sindbis/LacZ treated, CPT-11 treated, and Sindbis/LacZ+CPT-11 treated. The mice were treated 4 times a week, for 2 weeks, and then the treatment was stopped.

ES2/Fluc tumors [2] = assay: Sindbis+CPT-11 ES2/Fluc tumor survival experiment; type: in vivo, Es1^c/SCID mice; details: untreated mice survived about 4 weeks; i.p. treatment 4 times a week for 5 weeks from day 5
Experimental: FIGS. 1A and 1B: Survival of tumor-bearing mice treated with Sindbis+CPT-11. (A) Mice were injected with 1.5×10^6 ES2/Fluc cells on day 0. Mice were then divided into 4 groups of 10. Treatment started on day 5, and lasted for 5 weeks, in which mice were treated 4 times a week. Mice treated with Sindbis/LacZ received I.P. injection of ˜10^7 plaque-forming units of the vector in 0.5 mL OptiMEM; mice treated with CPT-11 received I.P. injections of 15 mg/kg body weight of the recipient of CPT-11 in […]. Mice treated with the combined treatments were treated with Sindbis/LacZ and CPT-11 on the same day (Sindbis/LacZ in the morning, and CPT-11 in the evening). […] The experiment was repeated twice (for a total of 20 mice per group), and the results were combined into one graph. (B) Tumor load in mice treated with Sindbis/LacZ+CPT-11. On day 4 after injecting the mice with 10 million ES2/Fluc cells, tumors developed in various IP locations (top). […]
C.B-17 SCID mice (Taconic, Germantown, N.Y.) were bred with a plasma esterase deficient mouse model—Es1^c Foxn1^nu/J (Jackson laboratory, Bar Harbor, Me.). […] Briefly, blood was collected from F2 mice, and was tested by FACS analysis to determine T and B cell levels, and the plasma esterase activity was measured using a nitrophenyl acetate assay (Spectrum, Gardena, Calif.). […]

[3] = in human; cited from earlier work
s.c. N2a tumors = assay: s.c. N2a neuroblastoma model: vascular leakiness, vector transduction, tumor growth; type: in vivo, SCID mice; details: for tumor vascular permeability / leakiness (AngioSense signals): metronomic i.p. Paclitaxel 16 mg/Kg or Cisplatin 4 mg/Kg
Description: FIG. 7A-7D. […] We used 1:1 RD-Sindbis/LacZ:RC-Sindbis/Fluc mixture as a control. AngioSense® 750 (0.66 nmol) was i.v. injected on day 1. […] B, quantitative presentation of luciferase signals in tumors. C and D, quantitative presentation of AngioSense® signals of tumors receiving indicated treatments.
A, relative growth curves of s.c. N2a tumors treated with Paclitaxel alone (Taxol®) or untreated (Ctrl). B, relative tumor growth curves of different treatment groups as in FIG. 5.
FIG. 9A-9C. […] Starting on day 0, daily treatments of Cisplatin (4 mg/Kg or 12 mg/m^2 compared with maximum tolerated dose of 100 mg/m^2 in humans) were i.p. injected into SCID mice bearing s.c. N2a tumors. One last Cisplatin treatment was administrated on day 4. A, to visualize vascular leakiness, AngioSense® 750 (0.66 nmol) was i.v. injected on day 1 and imaged on day 2. B, RC-Sindbis/Fluc was i.v. injected on day 0 and day 2. Luciferase activities in tumors that indicated active vector propagation were monitored on day 3. C, relative tumor growth curves of different treatment groups.
All animal experiments were performed in accordance with NIH and institutional guidelines. BHK cells (1.5×10^6/mouse) were s.c. inoculated into SCID mice (female, 6-8 week old, Taconic, Germantown, N.Y.). The mouse neuroblastoma tumors were induced by s.c. injection of 1.5×10^6 N2a cells into SCID mice 13 days prior to treatments. For better visualization, we remove excessive fur on the skin over the tumor and its surrounding region. The setting for dual mPlum/AngioSense imaging is as following: ex605/em660, 680 and 700 nm, followed by ex745/em800, 820 and 840 nm. Bioluminescent imaging of luciferase activities was performed as described before (7). Tumor sizes were measured using the formula: π/6×length (mm)×width (mm)^2.
In order to test whether chemotherapeutic agents synergize with Sindbis vector in tumor eradication by modulating vascular leakiness, we used a s.c. mouse N2a neuroblastoma model.
We used a replication-competent (RC) Sindbis/Fluc vector (21) instead of an RD one to further enhance the tumor transduction signal output (FIG. 7B) in N2a tumors. RC vector carries a full set of viral structural genes to support its replication. Specific tumor infection of RC vector could result in oncolytic effects by intratumoral vector replication and amplification. […] To ensure temporary expression of VEGF, we used replication defective RD-Sindbis/VEGF mixed with RC-Sindbis/Fluc (1:1).

endothelium cells = details: cited from earlier work
ES2/Fluc tumors [4] = assay: Sindbis+Taxol ES2/Fluc tumor growth and survival experiment; type: in vivo, SCID mice
Experimental: FIG. 2A-2D: Survival and tumor load in tumor-bearing mice treated with Sindbis+Taxol®. Mice were injected with 4×10^6 ES2/Fluc cells on day 0. Mice were then divided into 4 groups of 9. Mice were treated with Sindbis/LacZ (I.P.) daily from day 1 to day 11, and with Taxol® (0.4 mg/mouse) on day 3, 6 and 10. (B) Quantitative analysis of tumor growth, day 1 tumor load signal was set at 100% for each individual mouse for comparison with later images (day 3, 6, and 10). (C) Mouse survival was monitored. (D) The surviving mice were imaged on day 46 to determine if they have any tumors.
Sindbis+Taxol® ES2/Fluc tumor growth and survival experiment: Female SCID mice (8-12 weeks old) received intraperitoneal injections of 4×10^6 ES2/Fluc cells on day 0, and tumor growth was validated by imaging the mice on day 1. For quantitative analysis of tumor growth, day 1 tumor load signal was set as 100% for each individual mouse for comparison with subsequent images. Mice (nine per group) were treated with Sindbis/LacZ (I.P.) daily from day 1 to day 11, and with Taxol® (0.4 mg/mouse) on day 3, 6 and 10. Mice were imaged on days 1, 3, 6, 10, and 46. A tumor free mouse was used as a negative control.

cancer cells = assay: Pretreatment of cancer cells with drug, susceptibility to Sindbis vector; type: cell-based; details: data not shown

Row | Compound | tumor status on images [1] | additional survival compared with untreated mice (ES2/Fluc tumors [2]) | maximum tolerated dose [3] | Sindbis vector delivery and transduction (luciferase signals in tumors) (s.c. N2a tumors; RC-Sindbis/Fluc vector) | tumor vascular permeability / leakiness (AngioSense signals) (s.c. N2a tumors) | therapeutic efficacy in combination with Sindbis vectors (s.c. N2a tumors; relative tumor growth curves, FIG. 8B, 9C) | tumor growth, drug alone (s.c. N2a tumors; relative growth curves, FIG. 8A) | sensitivity of endothelium cells relative to tumor cells, times more sensitive (endothelium cells) | tumor level of survivors on day 46 (ES2/Fluc tumors [4]; IVIS imaging, compared with tumor-free mouse) | tumor load / tumor growth by imaging (ES2/Fluc tumors [4]; days 3, 6 and 10, day 1 signal set at 100%) | mice surviving on day 46 (ES2/Fluc tumors [4]; nine mice per group, treatment stopped for 35 days) | susceptibility of pretreated cancer cells to Sindbis vector (cancer cells)
1 | CCc1c2c(nc3ccc(OC(=O)N4CCC(N5CCCCC5)CC4)cc13)-c1cc3c(c(=O)n1C2)COC(=O)[C@]3(O)CC [CPT-11, irinotecan] | have tumors that appear to be growing | 15 days |  |  |  |  |  |  |  |  |  | 
2 | N.N.[Cl][Pt][Cl] [Cisplatin] |  |  | 100 mg/m^2 | enhanced | significantly increased; also recorded: enhancement in tumor vascular leakiness | better therapeutic efficacy |  |  |  |  |  | 
3 | CC(=O)O[C@H]1C(=O)[C@@]2(C)[C@H]([C@H](OC(=O)c3ccccc3)[C@]3(O)C[C@H](OC(=O)[C@H](O)[C@@H](NC(=O)c4ccccc4)c4ccccc4)C(C)=C1C3(C)C)[C@]1(OC(C)=O)CO[C@@H]1C[C@@H]2O [Paclitaxel] |  |  | 175 mg/m^2 |  | significantly increased; also recorded: enhance tumor vascular leakiness |  | suppresses tumor growth | 10-100 | much higher tumor levels | still show tumor growth | one | does not enhance
